According to PMC4515504 (Evidence-based Complementary and Alternative Medicine : eCAM, 2015):

System: T1, alpha-glucosidase (from Bacillus stearothermophilus)
T1 construct: gene maltase
Test: pNPG hydrolysis, Lineweaver-Burk plot
Format: biochemical, Geobacillus stearothermophilus
Conditions: control without extract; pNPG 0.08-5 mg/mL, 37°C, 20 min; unreliable: Km extrapolated above the tested substrate range
Excerpt: pNPG hydrolysis, Lineweaver-Burk plot on alpha-glucosidase (from Bacillus stearothermophilus)

## O=[N+]([O-])c1ccc(O[C@H]2O[C@H](CO)[C@@H](O)[C@H](O)[C@H]2O)cc1 [p-nitrophenyl glucopyranoside]
  Alpha-glucosidase / K m: 17.39 mg/mL
